Converted amounts (≈) assume the structure as drawn. “And” between values parts separate entries of the source, which are not always exact repeats. Equal entries are not always repeated. Where two headings read alike, the source gives them in different places.
Legend:
[1] = tested on: Corticium sasaki; type: in vivo; settings: after 8 days
[2] = tested on: Puccinia recondita; type: in vivo
[3] = tested on: Magnaporthe grisea; type: in vivo; settings: RCB rice blast, infected leaf area after 7 days
[4] = tested on: Botrytis cinerea; assay: microbe, parasite or virus in culture; type: cell-based
[5] = tested on: Fusarium oxysporum; assay: microbe, parasite or virus in culture; type: cell-based
[6] = tested on: Alternaria kikuchiana; assay: microbe, parasite or virus in culture; type: cell-based
[7] = tested on: Pythium ultimum; assay: microbe, parasite or virus in culture; type: cell-based; settings: Globisporangium ultimum
[8] = tested on: Magnaporthe grisea; assay: microbe, parasite or virus in culture; type: cell-based; settings: Pyricularia oryzae
[9] = Acute toxicity test, oral, mice; type: in vivo; settings: male, mouse, in vivo, ICR mice, single administration, 7 days observation
Experimental: (§1) To perform an acute toxicity test of Chloranthus henryi extract and the sesquiterpene compound of formula (1), 6-week-old ICR mice (♂, 25 g, Korean Bio Corp.) were divided into 4 groups with two mice per each group, and raised under the condition of 22±3° C., 55±10% (humidity), 12L/12D (intensity of illumination). The mice were adapted for 1 week, and freely fed with foods for test animals (Jeil Feed Corp., Korea, for mouse and rat) and sterilized water.
(§2) Chloranthus henryi extract and the sesquiterpene compound of formula (1) were dissolved in a small amount of dimethyl sulfoxide (DMSO), and diluted with 1% carboxylmethyl cellulose. Four groups of mice were orally administered with 540 mg/kg, 180 mg/kg, 60 mg/kg and 20 mg/kg, respectively. Control group was administered with 1% carboxylmethyl cellulose. For 7 days after the administration, the presence of side effects or mortality was observed as follows. […] The changes in clinical signs and mortality of animals after administration were observed twice everyday for 7 days, i.e., in the morning and in the afternoon.
(§3) Further, the internal organs of the dead mice were examined through macroscopic observation after necropsy on the 7th day. The change in body weight of animals by Chloranthus henryi extract and sesquiterpene compound of formula (1) was observed everyday after administration.

[10] = tested on: ICR mice; assay: Acute toxicity test, oral, mice; type: in vivo
Experimental: as §1, §2, §3

[11] = tested on: Colletotrichum lagenarium; assay: microbe, parasite or virus in culture; type: cell-based; settings: Colletotrichum orbiculare
[12] = tested on: Rhizoctonia solani; assay: microbe, parasite or virus in culture; type: cell-based
[13] = tested on: Phytophthora infestans; type: in vivo; settings: for In vivo control values: TLB tomato late blight, after 4 days

## C/C=C(\C)C(=O)OC[C@]1(O)[C@H]2C[C@H]2[C@]2(C)[C@@H]3CC4=C5[C@H](/C(=C(\C)C(=O)OC)C(=O)[C@H](O)[C@@]5(C)[C@@H]5C[C@H]45)[C@@]34OC(=O)C(COC(C)=O)=C4C[C@@H]12 [CHE-23C]
[1]
  In vivo control values: 69% and 50%
[2]; after 7 days
  In vivo control values: 100% and 87% and 80%
[2]; in vivo
  control values in the greenhouse experiments (in words): potent control values
[3]; 11 ppm spray
  In vivo control values: 67%
[3]; 33 ppm spray
  In vivo control values: 50%
[3]; 100 ppm spray
  In vivo control values: 72%
[4]
  MIC: 8 µg/mL (≈ 11.8 µM)
[5]
  MIC: 16 µg/mL (≈ 23.6 µM)
[6]
  MIC: 8 µg/mL (≈ 11.8 µM)
[7]
  MIC: 1 µg/mL (≈ 1.48 µM)
[8]
  MIC: 4 µg/mL (≈ 5.91 µM)
[9]
  LD50 at 7 days: > 540 mg/kg
[10]; 540 mg/kg, 7 days
  mortality in the maximum dosage group: all the mice in the maximum dosage group (540 mg/kg) survived
[10]; 20-540 mg/kg, all treated groups, necropsy on the 7th day
  gross findings caused by the test materials: no significant gross findings
[11]
  MIC: 8 µg/mL (≈ 11.8 µM)
[12]
  MIC: 16 µg/mL (≈ 23.6 µM)
[13]; Phytophthora infestans, greenhouse
  control values in the greenhouse experiments (in words): potent control values
[13]; 11 ppm spray
  In vivo control values: 29%
[13]; 33 ppm spray
  In vivo control values: 91%
[13]; 100 ppm spray
  In vivo control values: 93%

Source: patent US7491415B2 (priority 2005, dated 2009)
